Results published in PMC3004370, “PI3Kα Inhibitors That Inhibit Metastasis” (Oncotarget, 2010).
Counter-ions that a name gives are not always drawn.

Tests used:
[1] = molecular target: T1, p110γ (Homo sapiens, UniProt P48736); experiment: Biochemical PI3K inhibition assay, p110γ; details: for IC50: 10 μM ATP, two hours, no regulatory subunit
T1 construct: His-tag; made in house; host or cells: Sf9 insect cells (baculovirus)
Text: (§1) cDNA clones of PIK3CA, PIK3CB and PIK3CG were obtained from Origene (Rockville, MD, USA). PIK3CD was generously provided by Novartis Pharmaceuticals. The cDNA clones were sub-cloned into pFastBac His-Tag (Invitrogen, Carlsbad, CA, USA) and baculovirus clones were generated by the Bac-to-Bac expression system (Invitrogen). p110α, p110β and p110δ were co-expressed in Sf9 insect cells (Invitrogen) with a nSH2-iSH2 fragment of the regulatory subunit p85 comprising AA residues 322 to 600 [4]. p110γ was expressed without a regulatory subunit. Sf9 cells were lysed in a buffer containing 50 mM sodium phosphate, pH 8.0, 400 mM NaCl, 5% glycerol, 1% Triton X-100, 10 mM 2-mercaptoethanol, 1 mM orthovanadate, 10 mM imidazole, and sonicated on ice for 1 minute. Proteins were purified by adding Ni-NTA Superflow beads (Qiagen, Valencia, CA, USA) to the lysate and subsequent rolling for 30 min at 4°C. Beads were washed twice with 50 mM phosphate buffer, pH 8.0, 0.5 M NaCl, 50 mM Imidazole, 2 mM DTT and eluted in the same buffer but with 200 mM imidazole. Purified PI3K's were mixed 1:1 with glycerol and stored at -20°C.
(§2) J-series inhibitors were dissolved, serial diluted in DMSO and deposited into 96 well plates at a final DMSO concentration of 1%. We used a novel assay to determine their potency and selectivity. In brief, micelles of 2.5 μg L-a-Phosphatidylinositol and 2.5 μg 1,2-Diacyl-sn-glycero-3-phospho-L-serine were formed by sonication, mixed with the individual PI3K isoforms and added to the drug dilutions in a reaction buffer containing 10 mM HEPES, 25 mM NaCl, 0.125 μg/μl BSA, and 2 mM BME (final concentrations). Reactions were timed after the addition of 10 μM ATP with 40 μCi/ml γ-32P-ATP (PerkinElmer, Waltham, MA, USA) and 2 mM MgCl2 (all final concentrations). The reactions were terminated after two hours by the addition of 2 N HCl and the lipids extracted with 1:1 MetOH/Chloroform. Radio-labeled phosphatidyl-inositol-3-phosphate in the extracted organic fraction was quantified after the addition of Microscint O (PerkinElmer) using a TopCount 96 well plate scintillation counter (PerkinElmer). IC50 concentrations and inhibition curves were calculated using Prism 5 (GraphPad Software, La Jolla, CA).

[2] = molecular target: T2, p110α (Homo sapiens, UniProt P42336); experiment: Biochemical PI3K inhibition assay, p110α; details: for IC50: 10 μM ATP, two hours; for effect of substitution on PI3Kα potency/selectivity (in words): SAR discussion
T2 construct: His-tag; made in house; host or cells: Sf9 insect cells (baculovirus)
T2 sequence (P42336 whole entry): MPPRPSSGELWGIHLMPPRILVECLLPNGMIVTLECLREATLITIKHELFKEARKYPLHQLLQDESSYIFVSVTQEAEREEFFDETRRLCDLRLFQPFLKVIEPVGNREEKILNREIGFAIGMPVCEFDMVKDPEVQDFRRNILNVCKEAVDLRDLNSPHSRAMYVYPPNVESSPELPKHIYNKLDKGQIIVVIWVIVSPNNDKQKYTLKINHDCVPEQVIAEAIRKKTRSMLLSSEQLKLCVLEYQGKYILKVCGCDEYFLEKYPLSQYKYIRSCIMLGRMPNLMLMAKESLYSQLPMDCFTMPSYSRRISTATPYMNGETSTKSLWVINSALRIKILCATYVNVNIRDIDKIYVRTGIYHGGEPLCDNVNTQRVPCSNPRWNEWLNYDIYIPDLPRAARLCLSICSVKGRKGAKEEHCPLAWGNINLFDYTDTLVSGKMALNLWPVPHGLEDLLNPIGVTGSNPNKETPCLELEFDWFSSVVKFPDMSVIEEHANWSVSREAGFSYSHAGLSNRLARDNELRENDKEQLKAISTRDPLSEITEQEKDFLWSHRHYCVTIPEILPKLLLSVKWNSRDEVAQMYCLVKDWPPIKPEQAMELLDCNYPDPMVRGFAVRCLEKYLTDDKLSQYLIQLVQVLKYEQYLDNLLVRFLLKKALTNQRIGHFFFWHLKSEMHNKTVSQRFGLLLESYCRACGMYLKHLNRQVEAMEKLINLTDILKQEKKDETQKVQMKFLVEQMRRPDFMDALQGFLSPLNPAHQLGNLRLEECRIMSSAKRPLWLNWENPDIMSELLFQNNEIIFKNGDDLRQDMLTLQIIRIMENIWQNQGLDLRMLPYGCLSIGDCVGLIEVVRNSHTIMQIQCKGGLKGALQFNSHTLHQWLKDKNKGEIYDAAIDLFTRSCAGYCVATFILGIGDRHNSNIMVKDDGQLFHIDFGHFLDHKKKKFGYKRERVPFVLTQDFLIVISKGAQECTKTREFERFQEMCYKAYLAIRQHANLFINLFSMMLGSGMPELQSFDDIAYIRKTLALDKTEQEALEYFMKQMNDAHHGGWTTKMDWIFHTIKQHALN
T2 sequence (P27986 322-600 partner limits assumed): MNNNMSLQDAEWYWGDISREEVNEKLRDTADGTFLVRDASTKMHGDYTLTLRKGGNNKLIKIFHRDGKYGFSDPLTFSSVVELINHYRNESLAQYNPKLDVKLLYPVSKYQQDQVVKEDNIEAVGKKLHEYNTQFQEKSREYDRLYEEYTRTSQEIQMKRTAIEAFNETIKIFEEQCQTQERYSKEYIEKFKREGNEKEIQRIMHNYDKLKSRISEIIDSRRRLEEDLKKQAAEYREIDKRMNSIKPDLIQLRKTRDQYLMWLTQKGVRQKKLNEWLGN
Description: PIK3CD was generously provided by Novartis Pharmaceuticals. […] Sf9 cells were lysed in a buffer containing 50 mM sodium phosphate, pH 8.0, 400 mM NaCl, 5% glycerol, 1% Triton X-100, 10 mM 2-mercaptoethanol, 1 mM orthovanadate, 10 mM imidazole, and sonicated on ice for 1 minute. Proteins were purified by adding Ni-NTA Superflow beads (Qiagen, Valencia, CA, USA) to the lysate and subsequent rolling for 30 min at 4°C. Beads were washed twice with 50 mM phosphate buffer, pH 8.0, 0.5 M NaCl, 50 mM Imidazole, 2 mM DTT and eluted in the same buffer but with 200 mM imidazole. Purified PI3K's were mixed 1:1 with glycerol and stored at -20°C.
as §2, with “In brief, micelles of 2.5 μg L-a-Phosphatidylinositol and 2.5 μg 1,2-Diacyl-sn-glycero-3-phospho-L-serine were formed by sonication, mixed with the individual PI3K isoforms and added to the drug dilutions in a reaction buffer containing 10 mM HEPES, 25 mM NaCl, 0.125 μg/μl BSA, and 2 mM BME (final concentrations).” left out

[3] = molecular target: T3, p110β (Homo sapiens, UniProt P42338); experiment: Biochemical PI3K inhibition assay, p110β; details: for IC50: 10 μM ATP, two hours
T3 construct: His-tag; made in house; host or cells: Sf9 insect cells (baculovirus)
T3 sequence (P42338 whole entry): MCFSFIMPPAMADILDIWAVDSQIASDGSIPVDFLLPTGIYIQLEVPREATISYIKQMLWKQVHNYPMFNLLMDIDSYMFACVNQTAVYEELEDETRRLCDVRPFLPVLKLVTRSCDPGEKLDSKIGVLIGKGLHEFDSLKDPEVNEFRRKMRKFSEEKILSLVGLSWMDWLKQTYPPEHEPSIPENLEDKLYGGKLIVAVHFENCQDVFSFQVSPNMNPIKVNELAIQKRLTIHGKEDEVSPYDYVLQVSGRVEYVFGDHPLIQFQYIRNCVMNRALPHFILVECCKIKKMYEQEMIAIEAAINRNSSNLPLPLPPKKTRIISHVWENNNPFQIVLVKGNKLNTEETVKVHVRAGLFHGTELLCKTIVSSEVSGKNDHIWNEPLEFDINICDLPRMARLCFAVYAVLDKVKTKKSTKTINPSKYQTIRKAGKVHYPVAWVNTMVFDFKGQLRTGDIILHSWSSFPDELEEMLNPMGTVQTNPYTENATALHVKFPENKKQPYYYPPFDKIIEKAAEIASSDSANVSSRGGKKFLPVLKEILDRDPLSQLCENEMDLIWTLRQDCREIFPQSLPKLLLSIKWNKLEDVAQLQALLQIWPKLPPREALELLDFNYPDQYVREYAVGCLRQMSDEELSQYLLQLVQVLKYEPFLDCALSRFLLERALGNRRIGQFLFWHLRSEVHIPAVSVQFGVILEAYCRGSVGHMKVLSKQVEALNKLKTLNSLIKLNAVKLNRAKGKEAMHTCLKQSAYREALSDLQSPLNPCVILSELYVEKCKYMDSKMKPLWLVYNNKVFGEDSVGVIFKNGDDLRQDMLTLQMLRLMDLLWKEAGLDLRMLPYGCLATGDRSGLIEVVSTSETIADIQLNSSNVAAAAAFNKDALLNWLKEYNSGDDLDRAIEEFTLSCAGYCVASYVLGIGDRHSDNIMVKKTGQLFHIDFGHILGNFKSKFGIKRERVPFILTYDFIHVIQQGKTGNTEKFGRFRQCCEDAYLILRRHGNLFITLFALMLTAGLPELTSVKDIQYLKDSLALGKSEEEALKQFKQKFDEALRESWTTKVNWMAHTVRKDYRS
T3 sequence (P27986 322-600 partner limits assumed): as the sequence (P27986 322-600 partner limits assumed) above
Text: as §1, §2

[4] = molecular target: T4, p110δ (Homo sapiens, UniProt O00329); experiment: Biochemical PI3K inhibition assay, p110δ; details: for IC50: 10 μM ATP, two hours
T4 construct: His-tag; made in house; host or cells: Sf9 insect cells (baculovirus)
T4 sequence (O00329 whole entry): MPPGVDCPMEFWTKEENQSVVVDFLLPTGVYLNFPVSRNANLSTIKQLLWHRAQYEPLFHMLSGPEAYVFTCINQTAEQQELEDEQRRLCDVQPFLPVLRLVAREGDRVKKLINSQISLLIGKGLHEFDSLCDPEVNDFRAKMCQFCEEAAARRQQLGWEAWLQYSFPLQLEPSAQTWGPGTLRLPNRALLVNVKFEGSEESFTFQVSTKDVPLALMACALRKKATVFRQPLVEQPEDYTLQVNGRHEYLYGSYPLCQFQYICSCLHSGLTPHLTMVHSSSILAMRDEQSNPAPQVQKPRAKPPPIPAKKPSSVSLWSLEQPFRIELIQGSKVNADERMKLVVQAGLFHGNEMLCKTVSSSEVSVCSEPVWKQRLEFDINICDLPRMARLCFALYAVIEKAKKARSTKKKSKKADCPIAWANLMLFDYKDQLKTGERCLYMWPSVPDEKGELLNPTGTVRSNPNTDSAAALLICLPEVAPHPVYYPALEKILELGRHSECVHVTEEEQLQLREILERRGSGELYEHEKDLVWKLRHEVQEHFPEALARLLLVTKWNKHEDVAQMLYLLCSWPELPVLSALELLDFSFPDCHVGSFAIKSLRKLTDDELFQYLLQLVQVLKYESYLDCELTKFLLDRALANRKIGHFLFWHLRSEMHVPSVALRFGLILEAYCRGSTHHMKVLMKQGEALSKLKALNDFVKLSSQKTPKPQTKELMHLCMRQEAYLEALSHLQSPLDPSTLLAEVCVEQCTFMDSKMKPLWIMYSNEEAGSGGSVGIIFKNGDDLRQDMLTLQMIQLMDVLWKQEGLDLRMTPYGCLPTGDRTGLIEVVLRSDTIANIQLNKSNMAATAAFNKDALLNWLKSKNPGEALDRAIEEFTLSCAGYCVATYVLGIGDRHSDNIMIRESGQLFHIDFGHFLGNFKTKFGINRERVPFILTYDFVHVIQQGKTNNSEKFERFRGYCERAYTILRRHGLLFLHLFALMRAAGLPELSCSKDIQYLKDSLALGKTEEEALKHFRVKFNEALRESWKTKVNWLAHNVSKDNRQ
T4 sequence (P27986 322-600 partner limits assumed): as the sequence (P27986 322-600 partner limits assumed) above
Text: as §1, §2

T1 sequence (P48736 whole entry): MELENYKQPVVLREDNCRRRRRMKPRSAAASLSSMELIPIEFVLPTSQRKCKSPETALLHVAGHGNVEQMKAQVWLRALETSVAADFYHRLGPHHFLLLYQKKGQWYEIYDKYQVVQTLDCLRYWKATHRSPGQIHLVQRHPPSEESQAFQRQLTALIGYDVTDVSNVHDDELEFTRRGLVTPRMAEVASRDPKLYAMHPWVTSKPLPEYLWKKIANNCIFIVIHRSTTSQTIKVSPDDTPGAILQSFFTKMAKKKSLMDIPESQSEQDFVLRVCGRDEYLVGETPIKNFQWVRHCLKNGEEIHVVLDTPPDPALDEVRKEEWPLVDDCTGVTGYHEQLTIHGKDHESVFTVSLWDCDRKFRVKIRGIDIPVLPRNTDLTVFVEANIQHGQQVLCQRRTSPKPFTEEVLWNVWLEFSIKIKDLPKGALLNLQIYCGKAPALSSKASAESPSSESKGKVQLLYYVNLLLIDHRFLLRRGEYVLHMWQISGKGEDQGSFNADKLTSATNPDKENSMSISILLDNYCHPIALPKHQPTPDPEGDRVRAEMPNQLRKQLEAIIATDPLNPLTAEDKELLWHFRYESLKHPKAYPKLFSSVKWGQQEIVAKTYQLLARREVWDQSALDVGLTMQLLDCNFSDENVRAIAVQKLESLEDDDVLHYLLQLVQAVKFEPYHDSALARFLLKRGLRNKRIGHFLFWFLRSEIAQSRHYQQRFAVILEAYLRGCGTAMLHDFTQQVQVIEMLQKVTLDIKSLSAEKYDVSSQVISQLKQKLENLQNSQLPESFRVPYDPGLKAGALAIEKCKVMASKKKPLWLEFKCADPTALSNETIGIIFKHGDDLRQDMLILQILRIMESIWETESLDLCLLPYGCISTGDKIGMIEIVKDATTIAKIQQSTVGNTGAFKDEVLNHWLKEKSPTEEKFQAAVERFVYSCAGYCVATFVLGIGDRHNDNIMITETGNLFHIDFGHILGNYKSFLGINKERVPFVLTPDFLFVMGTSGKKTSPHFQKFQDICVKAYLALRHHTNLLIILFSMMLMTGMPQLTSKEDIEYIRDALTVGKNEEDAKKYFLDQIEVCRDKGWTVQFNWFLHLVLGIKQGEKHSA

Row | Structure (SMILES) | IC50 [1] [nM] | IC50 [2] [nM] | drop/decrease in inhibitory activity for PI3Kα ([2]; compared to J32) | IC50 [3] [nM] | IC50 [4] [nM] | effect of substitution on PI3Kα potency/selectivity (in words) [2] | increase of inhibitory activity for PI3Kα ([2]; compared to J32) [fold] | selectivity against PI3Kβ ([3]; relative to PI3Kα) | selectivity against PI3Kγ ([1]; relative to PI3Kα) [fold] | selectivity against PI3Kδ ([4]; relative to PI3Kα) [fold]
1 | Cc1ccc([N+](=O)[O-])cc1S(=O)(=O)N(C)/N=C/c1cnc2ccc(Br)cn12 [J27, N'-[(1E)-(6-Bromoimidazo [1,2-a]pyridin-3-yl)methylene]-N,2-dimethyl-5-nitrobenzenesulfonohydrazide hydrochloride, reference compound] | 75 | – | – | – | – | – | – | – | – | –
2 | Cc1ccc([N+](=O)[O-])cc1S(=O)(=O)N(Cc1ccccc1)/N=C/c1cnc2ccc(Br)cn12 [J30] | 3160 | 730 | 6 to 49 fold | 6310 | 781 | – | – | – | – | –
3 | CCN(/N=C/c1cnc2ccc(Br)cn12)S(=O)(=O)c1cccc([N+](=O)[O-])c1 [J37] | 801 | 55 | greater than 3.6 fold | 3060 | 476 | – | – | – | – | –
4 | CCN(/N=C/c1cnc2ccc(Br)cn12)S(=O)(=O)c1ccccc1C [J40] | 180000 | 20000 | > 1333 fold | 61000 | 53000 | – | – | – | – | –
5 | CCN(/N=C/c1cnc2ccc(Br)cn12)S(=O)(=O)c1cc(S(C)(=O)=O)ccc1C [J41] | 253000 | 23200 | – | 235000 | 3550 | impaired potency | – | – | – | –
6 | CCOC(=O)CN(/N=C/c1cnc2ccc(Br)cn12)S(=O)(=O)c1cc([N+](=O)[O-])ccc1C [J43] | 930 | 154 | – | 1900 | 363 | did not increase potency | – | – | – | –
7 | CCN(/N=C/c1cnc2ccc(Br)cn12)S(=O)(=O)c1cc(N)ccc1C [J44] | 30000 | 4400 | – | 21000 | 28000 | impaired potency | – | – | – | –
8 | CCN(/N=C/c1cnc2ccc(Br)cn12)C(=O)c1cc([N+](=O)[O-])ccc1C [J45] | 132 | 20 | – | 75 | 16 | decreased selectivity for the latter | – | – | – | –
9 | Cc1ccc([N+](=O)[O-])cc1S(=O)(=O)N(CC(C)C)/N=C/c1cnc2ccc(Br)cn12 [J46] | 1750 | 309 | 6 to 49 fold | 2970 | 485 | – | – | – | – | –
10 | Cc1ccc([N+](=O)[O-])cc1S(=O)(=O)N(CCC#N)/N=C/c1cnc2ccc(Br)cn12 [J47] | 192 | 25 | – | 149 | 169 | did not increase potency | – | – | – | –
11 | Cc1ccc([N+](=O)[O-])cc1S(=O)(=O)N(/N=C/c1cnc2ccc(Br)cn12)C(C)C [J55] | 3340 | 93 | 6 to 49 fold | 2420 | 760 | – | – | – | – | –
12 | CCN(/N=C/c1cnc2ccc(Br)cn12)S(=O)(=O)c1cc(C(=O)O)ccc1C [J100] | 5120 | 121 | – | 2000 | 173 | impaired potency | – | – | – | –
13 | CCN(/N=C/c1cnc2ccc(Br)cn12)S(=O)(=O)c1cc([N+](=O)[O-])ccc1Cl [J101] | 812 | 22 | – | 936 | 266 | maintain potency and isoform selectivity | – | – | – | –
14 | CCN(/N=C/c1cnc2ccc(Br)cn12)S(=O)(=O)c1cc([N+](=O)[O-])c(F)cc1C [J120] | 1800 | 24 | – | 1900 | 470 | did not impact the inhibitory activity for PI3Kα substantially | – | – | – | –
15 | CCN(/N=C/c1cnc2ccc(Br)cn12)S(=O)(=O)c1cc(C(N)=O)ccc1Cl [J125] | 1000 | 76 | – | 600 | 38 | impaired potency | – | – | – | –
16 | CCN(/N=C/c1cnc2ccc(Br)cn12)S(=O)(=O)c1cc([N+](=O)[O-])c(O)cc1C [J129] | 150 | 20 | – | 510 | 66 | did not impact the inhibitory activity for PI3Kα substantially | – | – | – | –
17 | CCN(/N=C/c1cnc2ccc(Br)cn12)S(=O)(=O)c1cc([N+](=O)[O-])c(NCCOC)cc1C [J157] | 1000 | 24 | – | 3000 | 430 | did not impact the inhibitory activity for PI3Kα substantially | – | – | – | –
18 | CCN(/N=C/c1cnc2ccc(Br)cn12)S(=O)(=O)c1cc([N+](=O)[O-])c(NCCOCCO)cc1C [J158] | 200 | 17 | – | 3500 | 440 | did not impact the inhibitory activity for PI3Kα substantially | – | – | – | –
19 | CCN(/N=C/c1cnc2ccc(Br)cn12)S(=O)(=O)c1cc([N+](=O)[O-])c(NCC(=O)O)cc1C [J159] | 32 | 4 | – | 1880 | 348 | – | 3.8 | – | – | –
20 | CCN(/N=C/c1cnc2ccc(Br)cn12)S(=O)(=O)c1cc([N+](=O)[O-])c(NC(C)C(=O)O)cc1C (stereo not drawn) [J160] | 140 | 11 | – | 8200 | 230 | – | – | – | – | –
21 | CCN(/N=C/c1cnc2ccc(Br)cn12)S(=O)(=O)c1cc([N+](=O)[O-])c(NCC(=O)OC)cc1C [J161] | 940 | 33 | – | – | 16000 | did not impact the inhibitory activity for PI3Kα substantially | – | – | – | –
22 | CCN(/N=C/c1cnc2ccc(Br)cn12)S(=O)(=O)c1cc([N+](=O)[O-])c(NCCO)cc1C [J162] | 210 | 25 | – | 2400 | 400 | did not impact the inhibitory activity for PI3Kα substantially | – | – | – | –
23 | CCN(/N=C/c1cnc2ccc(Br)cn12)S(=O)(=O)c1cc([N+](=O)[O-])c(NCC(N)=O)cc1C [J163] | 74 | 14 | – | 2100 | 130 | did not impact the inhibitory activity for PI3Kα substantially | – | – | – | –
24 | CCN(/N=C/c1cnc2ccc(Br)cn12)S(=O)(=O)c1cc([N+](=O)[O-])c(NCC(=O)NC(Cc2ccccc2)C(=O)O)cc1C (stereo not drawn) [J171] | 1150 | 19 | – | 12800 | 1960 | retained nanomolar potencies | – | ~ 670 fold | 60 | 100
